Measured values taken from article PMC7216583 (Parasites & Vectors, 2020).
Structures can show the parent of a compound that is named as a salt. Where two headings read alike, the source gives them in different places.

Assays:
p110β = system: p110β; parameters: method as in S-inhibitor; conditions: ref S-inhibitor; cited from earlier work
mTOR = system: mTOR; parameters: method as in S-inhibitor; conditions: ref S-inhibitor; cited from earlier work
[1] = system: Toxoplasma gondii RH-2F tachyzoites; test: microbe, parasite or virus in culture; conditions: 72 h
p110γ = system: p110γ; parameters: method as in S-inhibitor; conditions: ref S-inhibitor; cited from earlier work
Syk = system: Syk; parameters: method as in S-inhibitor; conditions: ref S-inhibitor; cited from earlier work
HIV protease = biological target: HIV protease; parameters: method as in S-inhibitor; conditions: ref S-inhibitor; cited from earlier work
HDAC = system: HDAC; parameters: method as in S-inhibitor; conditions: ref S-inhibitor; cited from earlier work
in vitro = conditions: human; for viability at 72 h: Host viability (%) mean
Aurora C [2] = system: Aurora C; parameters: method as in S-inhibitor catalog; conditions: vendor brief description; ref S-inhibitor catalog; cited from earlier work
Aurora C [3] = system: Aurora C; parameters: method as in library vendor description; conditions: ref library vendor description; cited from earlier work
Ret = system: Ret; parameters: method as in library vendor description; conditions: ref library vendor description; cited from earlier work
PDGFRβ [4] = system: PDGFRβ; parameters: method as in library vendor description; conditions: ref library vendor description; cited from earlier work
Aurora B = system: Aurora B; parameters: method as in S-inhibitor catalog; conditions: vendor brief description; ref S-inhibitor catalog; cited from earlier work
CDK7 = system: CDK7; parameters: method as in S-inhibitor; conditions: ref S-inhibitor; cited from earlier work
PDGFRβ [5] = system: PDGFRβ; parameters: method as in S-inhibitor; conditions: ref S-inhibitor; cited from earlier work
S6K1 = system: S6K1; parameters: method as in S-inhibitor; conditions: ref S-inhibitor; cited from earlier work
FGFR1 = system: FGFR1; parameters: method as in library vendor description; conditions: ref library vendor description; cited from earlier work
VEGFR2 = system: VEGFR2; parameters: method as in library vendor description; conditions: ref library vendor description; cited from earlier work
HDAC8 = system: HDAC8; parameters: method as in S-inhibitor; conditions: ref S-inhibitor; cited from earlier work
CCR5 = conditions: ref S-inhibitor, cited from earlier work
VEGFR1 = system: VEGFR1; parameters: method as in library vendor description; conditions: ref library vendor description; cited from earlier work
c-Kit = system: c-Kit; parameters: method as in library vendor description; conditions: ref library vendor description; cited from earlier work
HSP90 = conditions: ref library vendor description, cited from earlier work
[6] = system: Toxoplasma gondii RH-2F tachyzoites; conditions: 5 μM, 72 h
OX1 = biological target: OX1; parameters: method as in S-inhibitor; conditions: ref S-inhibitor, cited from earlier work
VEGFR3 = system: VEGFR3; parameters: method as in library vendor description; conditions: ref library vendor description; cited from earlier work
VEGFR-2 = system: VEGFR-2; parameters: method as in vendor brief description; conditions: ref vendor brief description; cited from earlier work
Flt4 = system: Flt4; parameters: method as in library vendor description; conditions: ref library vendor description; cited from earlier work
PI3Kδ = system: PI3Kδ; parameters: method as in library vendor description; conditions: ref library vendor description; cited from earlier work
Flt1 = system: Flt1; parameters: method as in library vendor description; conditions: ref library vendor description; cited from earlier work
Aurora A = system: Aurora A; parameters: method as in S-inhibitor; conditions: ref S-inhibitor; cited from earlier work
PDK-1 = system: PDK-1; parameters: method as in library vendor description; conditions: ref library vendor description, cited from earlier work
[7] = read-out: Parasite inhibition (%) mean, preliminary screen, mean
[8] = read-out: Parasite inhibition (%) mean, preliminary screen of compound library, mean

COc1cc(Nc2nc3ccccc3nc2NS(=O)(=O)c2ccc(NC(=O)c3ccc(C)c(OC)c3)cc2)cc(OC)c1 [XL765 (SAR245409)]
IC50 (p110β): 113 nM | IC50 (mTOR): 157 nM | inhibition of growth at 5 µM [1, 7]: 46.6% | IC50 (p110γ): 9 nM

COc1cc(Nc2ncc(F)c(Nc3ccc4c(n3)NC(=O)C(C)(C)O4)n2)cc(OC)c1OC [R406 (free base)]
IC50 (Syk): 41 nM

Cc1cccc(C)c1OCC(=O)N[C@@H](Cc1ccccc1)[C@@H](O)C[C@H](Cc1ccccc1)NC(=O)[C@H](C(C)C)N1CCCNC1=O [Lopinavir (ABT-378)]
Ki (HIV protease): 0.0013 nM | inhibition of growth at 5 µM [1, 7]: 0.9%

CCCCc1nc2cc(/C=C/C(=O)NO)ccc2n1CCN(CC)CC [SB939 (Pracinostat)]
IC50 (HDAC): 40 to 140 nM | inhibition of growth at 5 µM [1, 7]: 34.6%

CCn1cc(-c2ccnc3[nH]c(-c4cccc(CN(C)C)c4)cc23)c(-c2ccc(NC(=O)N(C)C)cc2)n1 [GSK1070916]
viability at 72 h (in vitro): 67.7% | inhibition of growth at 5 µM [1, 8]: 79.9% | IC50 (Aurora C [2]): 6.5 nM

CO[C@@H](C(=O)N1Cc2n[nH]c(NC(=O)c3ccc(N4CCN(C)CC4)cc3)c2C1)c1ccccc1 [Danusertib (PHA-739358)]
IC50 (Aurora C [3]): 61 nM | viability at 72 h (in vitro): 78.8% | inhibition of growth at 5 µM [1, 7]: 77.5% | IC50 (Ret): 31 nM

CCN(CC)CCNC(=O)c1c(C)[nH]c(/C=C2\C(=O)Nc3ccc(F)cc32)c1C [Sunitinib Malate (Sutent)]
IC50 (PDGFRβ [4]): […] | inhibition of growth at 5 µM [1, 7]: 7.5%

Cc1cc(CN2CCN(c3c(Br)cnc4[nH]c(-c5ccc(N6CCN(C)CC6)cc5)nc34)CC2)no1 [CCT137690]
IC50 (Aurora B): 25 nM | viability at 72 h (in vitro): 78.6% | inhibition of growth at 5 µM [1, 8]: 86.1% | IC50 (Aurora C [2]): 19 nM

CC(C)c1cnn2c(NCc3ccccc3)cc(NCCCCCCN)nc12 [BS-181 HCl]
inhibition of growth at 5 µM [1, 7]: 5.7% | IC50 (CDK7): 21 nM

COCCOc1ccc2c(c1)ncn2-c1ccc2cccc(N3CCC(N)CC3)c2n1 [CP 673451]
inhibition of growth at 5 µM [1, 7]: -13.8% | IC50 (PDGFRβ [5]): 1 nM

CCc1cncnc1N1CCN(Cc2nc3cc(C(F)(F)F)ccc3[nH]2)CC1 [PF-4708671]
inhibition of growth at 5 µM [1, 7]: 60.6% | IC50 (S6K1): 160 nM | Ki (S6K1): 20 nM

Cn1cc(/C=C/C(=O)c2cccc(F)c2)cc1/C=C/C(=O)NO [MC1568]
IC50 (HDAC): 220 nM | inhibition of growth at 5 µM [1, 7]: 35.4%

CCN(CC)CCCCNc1ncc2cc(-c3cc(OC)cc(OC)c3)c(NC(=O)NC(C)(C)C)nc2n1 [PD173074]
viability at 72 h (in vitro): 58.8% | inhibition of growth at 5 µM [1, 7]: 76.8% | IC50 (FGFR1): […] | IC50 (VEGFR2): 100 to 200 nM

O=C(Nc1cccc(Cl)c1)Nc1ncc(CCNc2ncnc3ccsc23)s1 [SNS-314 Mesylate]
IC50 (Aurora C [3]): 3.4 nM | viability at 72 h (in vitro): 32.9% | inhibition of growth at 5 µM [1, 7]: 79.4%

Cc1csc(-c2nnc(Nc3ccc(Oc4ncccc4-c4ccnc(N)n4)cc3)c3ccccc23)c1 [AMG 900]
IC50 (Aurora B): 4 nM | viability at 72 h (in vitro): 33.6% | inhibition of growth at 5 µM [1, 8]: 85.9% | IC50 (Aurora C [2]): 1 nM

Cc1ccc(NC(=O)c2ccc(CN3CCN(C)CC3)cc2)cc1Nc1nc(-c2cccnc2)cs1 [Masitinib (AB1010)]
IC50 (PDGFRβ [4]): […] | inhibition of growth at 5 µM [1, 7]: 10.5%

COc1ccc(Cn2ccc3ccc(C(=O)NO)cc32)cc1 [PCI-34051]
IC50 (HDAC8): 10 nM | inhibition of growth at 5 µM [1, 7]: 5.7%

Maraviroc
IC50 (CCR5; read-out: IC50, CCR5, MIP-1α, MIP-1α): 3.3 nM | IC50 (CCR5; read-out: IC50, CCR5, MIP-1β, MIP-1β): 7.2 nM | IC50 (CCR5; read-out: IC50, CCR5, RANTES, RANTES): 5.2 nM

CNC(=O)c1cc(Oc2ccc(NC(=O)Nc3ccc(Cl)c(C(F)(F)F)c3)c(F)c2)ccn1 [Regorafenib (BAY 73-4506)]
IC50 (VEGFR1): […] | viability at 72 h (in vitro): 68.2% | inhibition of growth at 5 µM [1, 7]: 76.7% | IC50 (Ret): 1.5 nM | IC50 (c-Kit): 7 nM

CO[C@H]1/C=C\C=C(\C)C(=O)NC2=CC(=O)C(NCCN(C)C)=C(C[C@@H](C)C[C@H](OC)[C@H](O)[C@@H](C)/C=C(\C)[C@@H]1OC(N)=O)C2=O [17-DMAG HCl (Alvespimycin)]
IC50 (HSP90; read-out: IC50 HSP90): 62 nM | inhibition of growth at 5 µM [1, 7]: 4.3%

Cc1cc(NC(=O)Nc2ccc(N(C)C)cc2)c2cc(F)cc(F)c2n1 [SB-408124, reference compound]
effect on T. gondii growth in the screen [6]: no effect on T. gondii growth | inhibition of growth at 5 µM [1, 7]: -80.4% | Ki (OX1; membrane): 27 nM | Ki (OX1; whole cell): 57 nM

CN1CCN(c2ccc3nc(-c4c(N)c5c(F)cccc5[nH]c4=O)[nH]c3c2)CC1 [Dovitinib (TKI-258)]
IC50 (PDGFRβ [4]): 27 nM | IC50 (VEGFR3): […] | inhibition of growth at 5 µM ([1]; read-out: Parasite inhibition (%) mean): -12.9%

COc1c(C)cnc(Cn2cnc3c(Cl)nc(N)nc32)c1C [BIIB021]
EC50 (HSP90; read-out: EC50 HSP90): […] | Ki (HSP90; read-out: Ki HSP90): […] | inhibition of growth at 5 µM [1, 7]: 3.5%

COC(=O)N[C@H](C(=O)N[C@@H](Cc1ccccc1)[C@@H](O)CN(Cc1ccc(-c2ccccn2)cc1)NC(=O)[C@@H](NC(=O)OC)C(C)(C)C)C(C)(C)C [Atazanavir sulfate]
Ki (HIV protease): 2.66 nM | viability (in vitro): 90.7% | inhibition of growth at 5 µM [1, 7]: 93.6%

Cc1cc(F)c(Nc2ncnc3cc(OCc4ccccc4)ccc23)cc1O [ZM 323881 HCl, reference compound]
IC50 (VEGFR-2): < 2 nM | viability at 72 h, 5 µM (in vitro; Host viability (%) Mean ± SD): 85.5 ± 5.4% | viability at 72 h (in vitro): 85.5% | inhibition at 5 µM ([1]; read-out: Parasite inhibition (%) Mean ± SD): 79.9 ± 1.4%

Cc1cc(Nc2cc(N3CCN(C)CC3)nc(/C=C/c3ccccc3)n2)n[nH]1 [ENMD-2076]
IC50 (Flt4): 15.9 nM | viability at 72 h (in vitro): 66.6% | inhibition of growth at 5 µM [1, 7]: 74.7%

Cc1ccccc1-n1c(Cn2cnc3c(N)ncnc32)nc2cccc(C)c2c1=O [IC-87114]
IC50 (PI3Kδ): […] | inhibition of growth at 5 µM [1, 7]: 11.1%

COc1cc2c(Oc3ccc4[nH]c(C)cc4c3F)ncnc2cc1OCCCN1CCCC1 [Cediranib (AZD2171)]
IC50 (Flt4): ≤ 3 nM | IC50 (Flt1): 5 nM | inhibition of growth at 5 µM [1, 7]: 0.4% | IC50 (VEGFR2): 0.5 nM

CCN(CC)Cc1ccc2cc(COC(=O)Nc3ccc(C(=O)NO)cc3)ccc2c1 [ITF2357 (Givinostat)]
IC50 (HDAC): 7.5 to 16 nM | inhibition of growth at 5 µM [1, 7]: 62.2%

CCN1CCN(C(=O)Cc2ccc(Nc3ncc(F)c(Nc4ccc(C(=O)Nc5ccccc5Cl)cc4)n3)cc2)CC1 [Aurora A Inhibitor I]
IC50 (Aurora A): 3.4 nM | inhibition of growth at 5 µM [1, 7]: 60.8%

O=C(Nc1cccc(Nc2ncc(Br)c(NCCc3cnc[nH]3)n2)c1)N1CCCC1 [BX-912]
inhibition of growth at 5 µM [1, 7]: 1.4% | IC50 (PDK-1; read-out: IC50 PDK-1): 12 nM

NCC(=O)Nc1ccc(-n2nc(C(F)(F)F)cc2-c2ccc3c(ccc4ccccc43)c2)cc1 [OSU-03012 (AR-12)]
inhibition of growth at 5 µM [1, 7]: 5.4% | IC50 (PDK-1; recombinant PDK-1, read-out: IC50 recombinant PDK-1): 5000 nM

COc1ccc(-c2ccc3c(N4CCOC[C@@H]4C)nc(N4CCOC[C@@H]4C)nc3n2)cc1CO [AZD8055]
IC50 (mTOR): 0.8 nM | inhibition of growth at 5 µM [1, 7]: 45.7%

COc1cc2nccc(Oc3ccc(NC(=O)NC4CC4)c(Cl)c3)c2cc1C(N)=O [E7080 (Lenvatinib)]
IC50 (VEGFR3): 5.2 nM | viability at 72 h (in vitro): 52.1% | inhibition of growth at 5 µM [1, 7]: 84.1% | IC50 (VEGFR2): 4 nM

Clc1ccc(Nc2nnc(Cc3ccncc3)c3ccccc23)cc1 [Vatalanib 2HCl (PTK787)]
IC50 (Flt1): […] | inhibition of growth at 5 µM [1, 7]: -6.6% | IC50 (c-Kit): 730 nM
